Assay results: BindingDB's records for doi:10.1111/j.1476-5381.1995.tb13240.x (Smithkline Beecham Pharmaceuticals, 1995)

Legend:
[1] = target: T1, 5-hydroxytryptamine receptor 2C (Rattus norvegicus, UniProt P08909)
T1 sequence (P08909 whole entry): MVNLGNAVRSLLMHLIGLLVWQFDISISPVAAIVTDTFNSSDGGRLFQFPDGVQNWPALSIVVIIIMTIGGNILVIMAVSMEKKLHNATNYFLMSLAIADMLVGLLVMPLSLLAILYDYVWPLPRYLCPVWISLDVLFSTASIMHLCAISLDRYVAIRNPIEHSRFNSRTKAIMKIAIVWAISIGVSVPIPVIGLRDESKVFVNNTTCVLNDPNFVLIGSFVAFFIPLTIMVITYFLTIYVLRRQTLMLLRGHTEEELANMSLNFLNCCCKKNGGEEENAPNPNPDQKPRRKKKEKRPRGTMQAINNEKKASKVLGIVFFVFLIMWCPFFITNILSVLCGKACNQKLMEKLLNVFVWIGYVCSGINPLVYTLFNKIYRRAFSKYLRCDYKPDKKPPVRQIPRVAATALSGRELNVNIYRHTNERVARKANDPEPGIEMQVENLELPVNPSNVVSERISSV

[2] = target: T2, 5-hydroxytryptamine receptor 2C (Homo sapiens, UniProt P28335)
T2 sequence (P28335 whole entry): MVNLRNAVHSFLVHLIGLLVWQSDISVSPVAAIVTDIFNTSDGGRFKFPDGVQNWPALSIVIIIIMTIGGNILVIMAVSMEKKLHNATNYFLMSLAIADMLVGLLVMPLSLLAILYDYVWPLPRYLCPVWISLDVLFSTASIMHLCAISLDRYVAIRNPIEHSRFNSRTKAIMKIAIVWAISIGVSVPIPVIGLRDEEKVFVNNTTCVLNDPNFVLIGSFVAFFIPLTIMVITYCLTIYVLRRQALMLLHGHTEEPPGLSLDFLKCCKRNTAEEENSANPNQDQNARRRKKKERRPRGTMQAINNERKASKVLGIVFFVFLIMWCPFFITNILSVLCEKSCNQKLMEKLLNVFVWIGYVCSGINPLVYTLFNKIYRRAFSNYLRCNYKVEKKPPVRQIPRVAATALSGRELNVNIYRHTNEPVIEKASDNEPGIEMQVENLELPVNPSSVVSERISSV

[3] = target: 5-hydroxytryptamine receptor 2B (Rattus norvegicus, UniProt P30994)
5-hydroxytryptamine receptor 2B, sequence (P30994 whole entry): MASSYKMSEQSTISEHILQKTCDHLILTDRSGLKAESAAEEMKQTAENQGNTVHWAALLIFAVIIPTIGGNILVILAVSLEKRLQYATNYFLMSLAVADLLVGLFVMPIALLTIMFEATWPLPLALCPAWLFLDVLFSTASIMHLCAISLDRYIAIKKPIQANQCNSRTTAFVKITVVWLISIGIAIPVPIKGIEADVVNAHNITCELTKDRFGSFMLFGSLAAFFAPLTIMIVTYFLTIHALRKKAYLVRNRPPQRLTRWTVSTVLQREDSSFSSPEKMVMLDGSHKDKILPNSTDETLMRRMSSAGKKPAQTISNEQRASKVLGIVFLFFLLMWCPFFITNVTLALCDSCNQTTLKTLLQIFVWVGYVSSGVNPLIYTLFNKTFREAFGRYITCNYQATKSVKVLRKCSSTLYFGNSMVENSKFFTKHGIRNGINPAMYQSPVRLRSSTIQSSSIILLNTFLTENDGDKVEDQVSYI

Compound	Ki [1] [nM]	Ki [2] [nM]	Ki [3] [nM]
COC(=O)[C@@H]1[C@H]2C[C@H]3c4[nH]c5ccccc5c4CCN3C[C@@H]2CC[C@@H]1O [yohimbic acid methyl ester]	5010		
CC(N)Cc1c[nH]c2ccc(OCc3cccs3)cc12 (stereo not drawn) [NSC_5311036]		316	12.6
